Experiments:
PDE4D2 (h) = target: T1, PDE4D2 (h) (Homo sapiens, UniProt Q08499); parameters: Eurofins SafetyScreen 87 enzyme part: inhibition of control enzyme activity, single concentration; details: mean of 2, 10 µM, inhibitor
T1 construct: gene PDE4D; isoform PDE4D2

[1] = target: T2, MAO-B (h) recombinant enzyme (Homo sapiens, UniProt P27338); parameters: Eurofins SafetyScreen 87 enzyme part: inhibition of control enzyme activity, single concentration; details: mean of 2, 10 µM, inhibitor
T2 construct: gene MAOB; recombinant enzyme
T2 sequence (P27338 whole entry): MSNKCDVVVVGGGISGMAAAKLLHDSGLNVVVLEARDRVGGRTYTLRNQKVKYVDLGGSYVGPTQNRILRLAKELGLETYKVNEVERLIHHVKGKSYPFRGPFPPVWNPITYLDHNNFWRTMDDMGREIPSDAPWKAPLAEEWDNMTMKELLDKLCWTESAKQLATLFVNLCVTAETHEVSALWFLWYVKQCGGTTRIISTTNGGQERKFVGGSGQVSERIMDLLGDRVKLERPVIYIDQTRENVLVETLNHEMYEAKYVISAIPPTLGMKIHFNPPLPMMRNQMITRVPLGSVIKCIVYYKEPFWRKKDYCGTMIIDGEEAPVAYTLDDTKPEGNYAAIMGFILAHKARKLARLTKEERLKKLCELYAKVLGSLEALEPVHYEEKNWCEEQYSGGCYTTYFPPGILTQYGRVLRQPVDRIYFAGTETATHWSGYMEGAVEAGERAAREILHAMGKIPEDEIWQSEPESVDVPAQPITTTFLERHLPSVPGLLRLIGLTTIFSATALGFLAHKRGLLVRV

COX2(h) = target: T3, COX2(h) (Homo sapiens, UniProt P35354); parameters: Eurofins SafetyScreen 87 enzyme part: inhibition of control enzyme activity, single concentration; details: mean of 2, 10 µM, inhibitor
T3 construct: gene PTGS2

COX1(h) = target: T4, COX1(h) (Homo sapiens, UniProt P23219); parameters: Eurofins SafetyScreen 87 enzyme part: inhibition of control enzyme activity, single concentration; details: mean of 2, 10 µM, inhibitor
T4 construct: gene PTGS1
T4 sequence (P23219 whole entry): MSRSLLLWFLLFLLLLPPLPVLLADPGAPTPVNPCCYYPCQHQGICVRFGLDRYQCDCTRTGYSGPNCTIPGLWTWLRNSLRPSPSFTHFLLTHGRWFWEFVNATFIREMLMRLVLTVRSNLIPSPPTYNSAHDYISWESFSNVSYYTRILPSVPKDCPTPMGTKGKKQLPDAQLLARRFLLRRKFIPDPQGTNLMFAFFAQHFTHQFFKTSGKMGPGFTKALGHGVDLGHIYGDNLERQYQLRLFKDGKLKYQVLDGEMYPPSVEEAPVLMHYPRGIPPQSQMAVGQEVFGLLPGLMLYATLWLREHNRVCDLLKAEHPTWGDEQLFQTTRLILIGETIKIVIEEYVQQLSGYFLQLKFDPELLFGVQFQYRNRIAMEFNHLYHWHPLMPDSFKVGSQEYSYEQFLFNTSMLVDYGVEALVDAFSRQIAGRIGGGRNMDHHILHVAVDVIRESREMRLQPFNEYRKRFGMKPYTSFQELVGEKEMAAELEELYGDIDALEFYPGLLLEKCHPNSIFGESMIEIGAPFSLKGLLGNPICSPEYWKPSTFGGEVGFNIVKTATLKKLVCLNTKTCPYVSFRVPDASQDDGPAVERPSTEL

cathepsin G (h) = target: T5, cathepsin G (h) (Homo sapiens, UniProt P08311); parameters: Eurofins SafetyScreen 87 enzyme part: inhibition of control enzyme activity, single concentration; details: mean of 2, 10 µM, inhibitor
T5 construct: gene CTSG
T5 sequence (P08311 whole entry): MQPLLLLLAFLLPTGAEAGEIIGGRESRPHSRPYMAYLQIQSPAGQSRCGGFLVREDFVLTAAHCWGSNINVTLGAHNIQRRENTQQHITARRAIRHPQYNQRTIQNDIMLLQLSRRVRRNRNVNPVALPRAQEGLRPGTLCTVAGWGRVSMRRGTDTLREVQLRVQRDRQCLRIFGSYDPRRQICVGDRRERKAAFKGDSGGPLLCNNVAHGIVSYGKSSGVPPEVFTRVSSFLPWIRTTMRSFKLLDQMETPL

[2] = target: T6, ETA (h) (agonist radioligand) (Homo sapiens, UniProt P25101); test: biochemical; details: read-out: Binding / ================================================= / % Inhibition of Control Specific Binding
T6 construct: gene EDNRA

[3] = target: T7, AT1 (h) (antagonist radioligand) (Homo sapiens, UniProt P30556); test: biochemical; details: read-out: Binding / ================================================= / % Inhibition of Control Specific Binding
T7 construct: gene AGTR1

[4] = target: CCR1 (h) (agonist radioligand) (Homo sapiens, UniProt P32246); test: biochemical; details: read-out: Binding / ================================================= / % Inhibition of Control Specific Binding
[5] = target: T8, alpha 2A (h) (antagonist radioligand) (Homo sapiens, UniProt P08913); test: biochemical; details: read-out: Binding / ================================================= / % Inhibition of Control Specific Binding
T8 construct: gene ADRA2A
T8 sequence (P08913 whole entry): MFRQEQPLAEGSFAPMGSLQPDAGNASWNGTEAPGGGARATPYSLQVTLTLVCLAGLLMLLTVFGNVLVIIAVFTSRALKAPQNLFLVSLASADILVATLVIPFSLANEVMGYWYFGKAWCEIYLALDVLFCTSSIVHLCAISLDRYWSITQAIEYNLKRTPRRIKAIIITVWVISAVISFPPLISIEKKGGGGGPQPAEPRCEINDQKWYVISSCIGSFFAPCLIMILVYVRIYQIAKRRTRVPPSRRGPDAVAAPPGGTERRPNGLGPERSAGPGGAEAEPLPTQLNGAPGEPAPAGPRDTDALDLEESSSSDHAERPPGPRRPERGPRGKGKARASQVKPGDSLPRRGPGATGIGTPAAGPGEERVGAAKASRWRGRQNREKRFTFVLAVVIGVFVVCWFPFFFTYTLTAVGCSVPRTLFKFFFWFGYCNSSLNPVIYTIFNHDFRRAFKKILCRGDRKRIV

[6] = target: T9, 5-HT2B (h) (agonist radioligand) (Homo sapiens, UniProt P41595); test: biochemical; details: read-out: Binding / ================================================= / % Inhibition of Control Specific Binding
T9 construct: gene HTR2B

[7] = target: T10, beta 1 (h) (agonist radioligand) (Homo sapiens, UniProt P08588); test: biochemical; details: read-out: Binding / ================================================= / % Inhibition of Control Specific Binding
T10 construct: gene ADRB1
T10 sequence (P08588 whole entry): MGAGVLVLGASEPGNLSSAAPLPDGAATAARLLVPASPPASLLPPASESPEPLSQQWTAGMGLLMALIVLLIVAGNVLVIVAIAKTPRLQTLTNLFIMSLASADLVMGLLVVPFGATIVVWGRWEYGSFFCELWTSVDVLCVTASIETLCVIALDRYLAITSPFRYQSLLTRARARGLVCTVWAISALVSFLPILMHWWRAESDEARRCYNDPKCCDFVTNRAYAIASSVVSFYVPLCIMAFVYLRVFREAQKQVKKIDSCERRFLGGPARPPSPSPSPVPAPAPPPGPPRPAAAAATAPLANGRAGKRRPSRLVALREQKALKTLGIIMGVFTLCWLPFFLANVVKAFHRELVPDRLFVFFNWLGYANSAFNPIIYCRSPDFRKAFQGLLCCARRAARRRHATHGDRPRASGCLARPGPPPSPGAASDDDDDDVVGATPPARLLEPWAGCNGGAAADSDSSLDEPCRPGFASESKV

[8] = target: T11, Estrogen ER alpha (h) (agonist radioligand) (Homo sapiens, UniProt P03372); test: biochemical; details: read-out: Binding / ================================================= / % Inhibition of Control Specific Binding
T11 construct: gene ESR1

[9] = target: T12, alpha 1D (h) (antagonist radioligand) (Homo sapiens, UniProt P25100); test: biochemical; details: read-out: Binding / ================================================= / % Inhibition of Control Specific Binding
T12 construct: gene ADRA1D
T12 sequence (P25100 whole entry): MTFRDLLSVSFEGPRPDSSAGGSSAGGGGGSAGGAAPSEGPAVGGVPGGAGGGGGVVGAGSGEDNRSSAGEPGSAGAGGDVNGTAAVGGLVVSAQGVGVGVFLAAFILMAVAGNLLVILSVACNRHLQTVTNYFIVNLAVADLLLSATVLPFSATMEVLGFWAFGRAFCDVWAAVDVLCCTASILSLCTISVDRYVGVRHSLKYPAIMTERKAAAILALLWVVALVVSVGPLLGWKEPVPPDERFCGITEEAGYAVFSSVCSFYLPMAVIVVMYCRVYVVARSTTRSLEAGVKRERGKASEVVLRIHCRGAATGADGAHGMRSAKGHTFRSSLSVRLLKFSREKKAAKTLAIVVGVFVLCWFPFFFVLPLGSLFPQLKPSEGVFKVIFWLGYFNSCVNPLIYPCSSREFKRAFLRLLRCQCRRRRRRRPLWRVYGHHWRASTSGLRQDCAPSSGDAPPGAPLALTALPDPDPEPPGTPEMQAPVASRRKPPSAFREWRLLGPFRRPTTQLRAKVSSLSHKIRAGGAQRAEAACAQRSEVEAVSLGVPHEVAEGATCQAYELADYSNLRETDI

[10] = target: T13, norepinephrine transporter (h) (antagonist radioligand) (Homo sapiens, UniProt P23975); test: biochemical; details: read-out: Binding / ================================================= / % Inhibition of Control Specific Binding
T13 construct: gene SLC6A2

[11] = target: T14, Y1 (h) (agonist radioligand) (Homo sapiens, UniProt P25929); test: biochemical; details: read-out: Binding / ================================================= / % Inhibition of Control Specific Binding
T14 construct: gene NPY1R

[12] = target: T15, M1 (h) (antagonist radioligand) (Homo sapiens, UniProt P11229); test: biochemical; details: read-out: Binding / ================================================= / % Inhibition of Control Specific Binding
T15 construct: gene CHRM1

[13] = target: T16, 5-HT2C (h) (antagonist radioligand) (Homo sapiens, UniProt P28335); test: biochemical; details: read-out: Binding / ================================================= / % Inhibition of Control Specific Binding
T16 construct: gene HTR2C

[14] = target: T17, GR (h) (agonist radioligand) (Homo sapiens, UniProt P04150); test: biochemical; details: read-out: Binding / ================================================= / % Inhibition of Control Specific Binding
T17 construct: gene NR3C1

[15] = target: CXCR2 (IL-8B) (h) (agonist radioligand) (Homo sapiens, UniProt P25025); test: biochemical; details: read-out: Binding / ================================================= / % Inhibition of Control Specific Binding
[16] = target: T18, beta 2 (h) (antagonist radioligand) (Homo sapiens, UniProt P07550); test: biochemical; details: read-out: Binding / ================================================= / % Inhibition of Control Specific Binding
T18 construct: gene ADRB2

[17] = target: T19, H2 (h) (antagonist radioligand) (Homo sapiens, UniProt P25021); test: biochemical; details: read-out: Binding / ================================================= / % Inhibition of Control Specific Binding
T19 construct: gene HRH2
T19 sequence (P25021 whole entry): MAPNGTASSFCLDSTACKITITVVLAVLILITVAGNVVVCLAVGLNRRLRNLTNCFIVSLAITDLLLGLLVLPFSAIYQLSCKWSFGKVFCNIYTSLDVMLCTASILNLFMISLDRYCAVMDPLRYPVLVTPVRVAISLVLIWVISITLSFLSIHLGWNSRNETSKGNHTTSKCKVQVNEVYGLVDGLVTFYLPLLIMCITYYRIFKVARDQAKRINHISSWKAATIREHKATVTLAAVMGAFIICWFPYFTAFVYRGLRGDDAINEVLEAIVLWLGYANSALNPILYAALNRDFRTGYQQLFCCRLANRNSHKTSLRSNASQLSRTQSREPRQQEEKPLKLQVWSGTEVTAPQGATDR

[18] = target: T20, alpha 1A (h) (antagonist radioligand) (Homo sapiens, UniProt P35348); test: biochemical; details: read-out: Binding / ================================================= / % Inhibition of Control Specific Binding
T20 construct: gene ADRA1A
T20 sequence (P35348 whole entry): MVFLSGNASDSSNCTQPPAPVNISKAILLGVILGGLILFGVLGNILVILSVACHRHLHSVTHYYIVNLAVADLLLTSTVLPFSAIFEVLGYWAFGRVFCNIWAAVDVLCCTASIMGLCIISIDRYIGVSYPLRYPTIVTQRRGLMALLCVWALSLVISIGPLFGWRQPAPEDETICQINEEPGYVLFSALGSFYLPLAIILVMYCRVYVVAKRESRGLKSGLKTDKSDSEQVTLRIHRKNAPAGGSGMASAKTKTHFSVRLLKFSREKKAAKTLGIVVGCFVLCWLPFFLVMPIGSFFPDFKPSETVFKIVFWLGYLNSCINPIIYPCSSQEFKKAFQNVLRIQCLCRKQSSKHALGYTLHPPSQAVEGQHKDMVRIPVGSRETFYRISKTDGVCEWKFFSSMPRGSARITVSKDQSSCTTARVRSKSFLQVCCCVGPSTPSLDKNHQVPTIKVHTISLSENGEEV

[19] = target: T21, 5-HT transporter (h) (antagonist radioligand) (Homo sapiens, UniProt P31645); test: biochemical; details: read-out: Binding / ================================================= / % Inhibition of Control Specific Binding
T21 construct: gene SLC6A4
T21 sequence (P31645 whole entry): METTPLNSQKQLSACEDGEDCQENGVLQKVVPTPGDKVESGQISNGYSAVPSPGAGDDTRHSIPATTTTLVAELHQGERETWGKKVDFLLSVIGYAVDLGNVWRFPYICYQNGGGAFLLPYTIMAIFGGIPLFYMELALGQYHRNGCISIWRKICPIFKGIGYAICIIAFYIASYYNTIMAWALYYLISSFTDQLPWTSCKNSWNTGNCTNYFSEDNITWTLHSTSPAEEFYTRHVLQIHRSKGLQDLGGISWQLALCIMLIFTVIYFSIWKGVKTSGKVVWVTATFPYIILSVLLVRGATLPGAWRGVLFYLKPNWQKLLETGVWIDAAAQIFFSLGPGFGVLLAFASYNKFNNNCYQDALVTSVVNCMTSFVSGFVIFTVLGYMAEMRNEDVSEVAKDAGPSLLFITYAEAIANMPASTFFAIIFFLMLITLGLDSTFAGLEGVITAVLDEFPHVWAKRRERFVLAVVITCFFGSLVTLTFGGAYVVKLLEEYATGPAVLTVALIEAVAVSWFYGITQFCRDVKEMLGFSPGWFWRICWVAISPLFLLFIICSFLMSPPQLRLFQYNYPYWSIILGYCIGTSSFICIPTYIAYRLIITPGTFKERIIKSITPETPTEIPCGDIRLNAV

[20] = target: AR(h) (agonist radioligand) (Homo sapiens, UniProt P10275); test: biochemical; details: read-out: Binding / ================================================= / % Inhibition of Control Specific Binding
[21] = target: T22, 5-HT1B (h) (antagonist radioligand) (Homo sapiens, UniProt P28222); test: biochemical; details: read-out: Binding / ================================================= / % Inhibition of Control Specific Binding
T22 construct: gene HTR1B

[22] = target: T23, MAO-A (antagonist radioligand) (Rattus norvegicus, UniProt P21396); test: biochemical; details: read-out: Binding / ================================================= / % Inhibition of Control Specific Binding
T23 construct: gene Maoa
T23 sequence (P21396 whole entry): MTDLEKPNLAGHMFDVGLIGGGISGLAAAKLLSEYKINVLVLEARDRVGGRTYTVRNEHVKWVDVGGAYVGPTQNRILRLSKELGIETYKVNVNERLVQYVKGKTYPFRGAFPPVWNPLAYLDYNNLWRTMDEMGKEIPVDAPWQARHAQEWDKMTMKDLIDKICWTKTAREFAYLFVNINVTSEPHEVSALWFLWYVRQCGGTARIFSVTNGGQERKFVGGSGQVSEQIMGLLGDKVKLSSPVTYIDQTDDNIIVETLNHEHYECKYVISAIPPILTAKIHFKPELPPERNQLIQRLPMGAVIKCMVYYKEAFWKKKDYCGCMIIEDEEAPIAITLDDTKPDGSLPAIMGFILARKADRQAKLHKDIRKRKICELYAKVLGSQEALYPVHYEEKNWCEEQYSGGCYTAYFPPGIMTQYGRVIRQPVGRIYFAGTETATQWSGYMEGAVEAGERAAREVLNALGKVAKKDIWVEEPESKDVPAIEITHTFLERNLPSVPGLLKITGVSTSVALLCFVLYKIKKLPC

[23] = target: T24, MC1 (agonist radioligand) (Mus musculus, UniProt Q01727); test: biochemical; details: read-out: Binding / ================================================= / % Inhibition of Control Specific Binding
T24 construct: gene Mc1r

PI3Kγ = PI3Kγ (Homo sapiens, UniProt P48736); test: X-ray cocrystal structure ([…] Å); purified kinase assay IC50; format: biochemical; parameters: gene PIK3CG; S144-A1102
PI3Kδ = target: T25, PI3Kδ (Homo sapiens, UniProt O00329); test: biochemical kinase assay at ATP Km apparent
T25 construct: gene PIK3CD

[24] = target: T26, Potassium Channel hERG (human)- [3H] Dofetilide (Homo sapiens, UniProt Q12809); test: in vitro
T26 construct: gene KCNH2

## C[C@@H](Nc1ncnc2ccc(-c3cnc(Cl)c(NS(C)(=O)=O)c3)cc12)c1ccccc1 [MTX-531, (R)-N-(2-chloro-5-(4-((1-phenylethyl)amino)quinazolin-6-yl)pyridin-3-yl)methane-sulfonamide]
PDE4D2 (h)
  % inhibition of control enzyme activity: 88%
[1]
  % inhibition of control enzyme activity: 10%
COX2(h)
  % inhibition of control enzyme activity: -3%
COX1(h)
  % inhibition of control enzyme activity: -4%
Cathepsin G (h)
  % inhibition of control enzyme activity: 26%
[2]
  inhibition at 10 µM: 1%
[3]
  inhibition at 10 µM: 4%
[4]
  inhibition at 10 µM: 0%
[5]
  inhibition at 10 µM: 5%
[6]
  inhibition at 10 µM: 2%
[7]
  inhibition at 10 µM: 1%
[8]
  inhibition at 10 µM: 6%
[9]
  inhibition at 10 µM: 17%
[10]
  inhibition at 10 µM: 19%
[11]
  inhibition at 10 µM: 0%
[12]
  inhibition at 10 µM: 22%
[13]
  inhibition at 10 µM: 4%
[14]
  inhibition at 10 µM: 3%
[15]
  inhibition at 10 µM: 4%
[16]
  inhibition at 10 µM: -6%
[17]
  inhibition at 10 µM: -1%
[18]
  inhibition at 10 µM: 9%
[19]
  inhibition at 10 µM: -1%
[20]
  inhibition at 10 µM: -1%
[21]
  inhibition at 10 µM: -21%
[22]
  inhibition at 10 µM: 8%
[23]
  inhibition at 10 µM: 2%
PI3Kγ
  IC50: 8.3 nM
PI3Kδ
  IC50: 1.1 nM
[24]
  inhibition at 10 µM: 51%
